{"source": "patent US20170246235A1", "about": "“GREEN TEA COMPOSITIONS” (priority 2014, published 2017)", "key": {"α-amylase": {"system": "α-amylase", "conditions": "cited from earlier work; for inhibition of α-amylase: at a concentration of 20 μM"}, "[1]": {"conditions": "after oral green tea extract; cited from earlier work"}, "[2]": {"conditions": "meta-analysis of 97 studies, Manach et al. (2005); cited from earlier work"}, "P. falciparum": {"system": "P. falciparum", "experiment": "Parasite growth measured by radiolabeled hypoxanthine uptake", "type": "cell-based, Plasmodium falciparum", "protocol": "Growth was measured by hypoxanthine uptake using radiolabeled hypoxanthine. […] ([…]) indicates rep. […] Graphpad Prism 6 software was used to analyse the data using the equation for log(inhibitor) vs. normalized response (variable slope).\nThis example was carried out to determine the parasiticidal efficacy of Phytofare® green tea extract containing catechins. The extract was resuspended in water to give a stock concentration of 58 mg/ml. Parasite growth was measured by hypoxanthine uptake using radiolabeled hypoxanthine as described (Slavic, K. et al., Mol. Biochem. Parasitol. 168:113-116, 2009). […] Each experiment included five technical replicates, and a total of three biological replicates were carried out.\nThe assay was repeated to obtain the IC50 values for pure caffeine, and for Epigallocatechin Gallate (EGCG) which is present in the extract, obtained from a different source. The concentration ranges used were 352.44 μM to 0.69 μM for caffeine, and 371.01 μM to 0.73 μM for EGCG. These concentrations reflect the molar concentrations present at the highest concentration (μg/ml) of extract used."}, "HIV-1 integrase": {"target": "T1, HIV-1 integrase (Human immunodeficiency virus type 1 group M subtype B, UniProt P04585)", "T1 construct": "Full-length recombinant HIV-1 integrase protein (200 nM, purified from bacteria); literature Express Biotech International; host or cells: bacteria", "conditions": "cited from earlier work"}, "breast cancer cells": {"system": "breast cancer cells", "conditions": "cited from earlier work"}, "MMP2": {"system": "MMP2", "conditions": "cited from earlier work"}, "MMP9": {"system": "MMP9", "conditions": "cited from earlier work"}, "[3]": {"conditions": "cited from earlier work"}}, "note": "Like-named read-outs stand apart in the source and are kept apart here."}
{"compound": "Oc1cc(O)c2c(c1)O[C@H](c1cc(O)c(O)c(O)c1)[C@H](O)C2", "note": "[EGC, epi-gallocatechin]", "values": [{"measurement": "inhibition of α-amylase", "setting": "α-amylase", "result": 13, "unit": "%"}, {"measurement": "area-under-curve, aqueous humor", "setting": "[1]", "result": "2035.0 ± 531.7", "unit": "nM·h"}, {"measurement": "concentration in aqueous humor", "setting": "[1]", "result": "0.6029 ± 0.1167", "unit": "µM"}, {"measurement": "elimination half-life", "setting": "[2]", "result": "2.3 ± 0.2", "unit": "h"}]}
{"compound": "Cn1c(=O)c2c(ncn2C)n(C)c1=O", "note": "[caffeine]", "values": [{"measurement": "inhibition by caffeine alone", "setting": "P. falciparum; even at 352.44 μM", "result": "no inhibition"}, {"measurement": "IC50, rep. 1", "setting": "P. falciparum; independent IC50 assay rep. 1", "result": "no calculable IC50 values"}, {"measurement": "IC50, rep. 2", "setting": "P. falciparum; independent IC50 assay rep. 2", "result": "no calculable IC50 values"}, {"measurement": "IC50, rep. 3", "setting": "P. falciparum; independent IC50 assay rep. 3", "result": "no calculable IC50 values"}]}
{"compound": "Oc1cc(O)c2c(c1)O[C@H](c1ccc(O)c(O)c1)[C@H](O)C2", "note": "[epicatechin]", "values": [{"measurement": "elimination half-life", "setting": "[2]", "result": "2.5 ± 0.4", "unit": "h"}]}
{"compound": "Oc1cc(O)c2c(c1)O[C@H](c1cc(O)c(O)c(O)c1)[C@@H](O)C2", "note": "[gallocatechin]", "values": [{"measurement": "area-under-curve, retina", "setting": "[1]", "result": "207,000 pmol×h/g"}, {"measurement": "highest concentration in the retina", "setting": "[1]", "result": "22729.4 ± 4229.4", "unit": "pmol/g"}]}
{"compound": "epigallocatechin-3-gallate [EGCG]", "values": [{"measurement": "IC50", "setting": "P. falciparum; ± S.E.M., read-out: IC50, means of the three independent experiments", "result": 80.8, "unit": "µM"}, {"measurement": "effect on Km of α-amylase", "setting": "α-amylase; 50 μM EGCG, p=0.1", "result": "did not significantly affect"}, {"measurement": "Vmax of α-amylase", "setting": "α-amylase; 50 μM EGCG, reduced from 323.3", "result": 206.1, "unit": "product/min/mg protein"}, {"measurement": "inhibition of α-amylase", "setting": "α-amylase", "result": 34, "unit": "%"}, {"measurement": "IC50 for HIV-1 integrase", "setting": "HIV-1 integrase", "result": "slightly higher than Raltegravir"}, {"measurement": "inhibition of invasion by breast cancer cells", "setting": "breast cancer cells; 20 μg/ml in the media", "result": "about 26%"}, {"measurement": "inhibition of invasion by breast cancer cells", "setting": "breast cancer cells; 50 μg/ml in the media", "result": "~100", "unit": "%"}, {"measurement": "production of MMP2", "setting": "MMP2; 20 ug/ml in the media", "result": "reduced"}, {"measurement": "activity of MMP2", "setting": "MMP2; 50 μg/ml and 100 ug/ml", "result": "completely inhibited"}, {"measurement": "production of MMP9", "setting": "MMP9; 20 ug/ml in the media", "result": "completely inhibited"}, {"measurement": "activity of MMP9", "setting": "MMP9; 50 μg/ml and 100 ug/ml", "result": "completely inhibited"}, {"measurement": "cellular toxicity to the corneal epithelium", "setting": "[3]; 0.01% or 0.1% EGCG", "result": "No cellular toxicity"}, {"measurement": "decrease in corneal fluorescein staining compared with the vehicle", "setting": "[3]; topical 0.1% EGCG", "result": 24.6, "unit": "%"}, {"measurement": "decrease in corneal fluorescein staining compared with untreated controls", "setting": "[3]; topical 0.1% EGCG", "result": 41.9, "unit": "%"}, {"measurement": "decrease in number of CD11b+ cells, central cornea, compared with the vehicle", "setting": "[3]; topical 0.1% EGCG", "result": 26.1, "unit": "%"}, {"measurement": "decrease in number of CD11b+ cells, peripheral cornea, compared with the vehicle", "setting": "[3]; topical 0.1% EGCG", "result": 23.3, "unit": "%"}, {"measurement": "elimination half-life", "setting": "[2]", "result": "3.5 ± 0.3", "unit": "h"}]}
